Data: patent US20150342847A1, “NOVEL DERIVATIVES OF SINAPINIC ACID AND THE COSMETIC OR PHARMACEUTICAL USES THEREOF” (BASF Beauty Care Solutions France SAS, priority 2012, published 2015)

Legend:
keratinocytes = assay: Cytotoxicity, MTT cell viability on keratinocytes; type: cell-based; settings: for Percentage cell viability, Mean: MTT
Procedure: Study of cell viability following application of the hydroxytyrosol dihydrosinapate of the invention of formula (IIa) to keratinocytes or melanocytes.
The cells (keratinocytes or melanocytes) were cultured in a 96-well plate at 37° C. under 5% CO2 in an appropriate medium until confluence. The medium was withdrawn and then an amount of 200 μL of a 0.5 mg/mL MTT solution was added. The plates were then incubated at 37° C. for 3 hours, after which the MTT solution was withdrawn from each well and replaced with DMSO. The plates were agitated for 15 minutes, and the optical density was measured at 550 nm.
The negative cytotoxicity control is PBS. The positive cytotoxicity control is 0.25% SDS. 0.1% DMSO was used as control.

[1] = tested on: keratinocytes from the A431 line; assay: Antiinflammatory activity: release of E2 prostaglandins by UVB-irradiated keratinocytes (ELISA); type: cell-based; settings: A431 keratinocytes, 30 μM, UV B 30 mJ/cm2, untreated irradiated control = 100%
Procedure: Study of the antiinflammatory activity of the hydroxytyrosol dihydrosinapate of the invention of formula (IIa), by measurement of the inhibition of release of E2 prostaglandins by keratinocytes under the effect of UVB.
The keratinocytes from the A431 line are cultured in an appropriate medium at 37° C. for 72 hours under 5% CO2. The culture medium is then withdrawn and replaced with the medium containing the products under test, and also the positive and negative controls. The cells are subsequently irradiated with UV B at 30 mJ/cm2. The cells are incubated for an extra 24 hours at 37° C. under 5% CO2. The cell supernatants are subsequently recovered, and the E2 prostaglandins (PGE2) released are quantified by an ELISA assay.
An amount of 100 μL of each sample, control or PGE2 standard is transferred to the wells of a 96-well plate, which are coated with antibodies directed against rat immunoglobulin G (IgG). Then an amount of 25 μL of PGE2-peroxidase conjugate is added to each well, followed by an amount of 25 μL of anti-PGE2 monoclonal antibody. The plate is incubated at 4° C. overnight. The wells are then rinsed and an amount of 100 μL of peroxidase substrate is added. After 15 minutes of incubation at ambient temperature, the optical density is read off at 450 nm. The amount of prostaglandin E2 released after irradiation is deduced from a commercial PGE2 standard range from 0 to 400 pg/mL of PGE2.
The negative control, represented by the cells which were not treated with samples and which underwent irradiation by UV B, gave rise to 100% release of PGE2. The positive experimental control is aspirin, which at 0.03% gave rise to 5%+/−2% release of PGE2.

human tyrosinase = biological target: T1, human tyrosinase (Homo sapiens, UniProt P14679); assay: Anti-human tyrosinase activity in normal human melanocytes (MBTH/L-Dopa, OD490); type: cell-based
T1 construct: endogenous in cells; host or cells: normal human melanocytes obtained from abdominal plasty
T1 sequence (P14679 19-529): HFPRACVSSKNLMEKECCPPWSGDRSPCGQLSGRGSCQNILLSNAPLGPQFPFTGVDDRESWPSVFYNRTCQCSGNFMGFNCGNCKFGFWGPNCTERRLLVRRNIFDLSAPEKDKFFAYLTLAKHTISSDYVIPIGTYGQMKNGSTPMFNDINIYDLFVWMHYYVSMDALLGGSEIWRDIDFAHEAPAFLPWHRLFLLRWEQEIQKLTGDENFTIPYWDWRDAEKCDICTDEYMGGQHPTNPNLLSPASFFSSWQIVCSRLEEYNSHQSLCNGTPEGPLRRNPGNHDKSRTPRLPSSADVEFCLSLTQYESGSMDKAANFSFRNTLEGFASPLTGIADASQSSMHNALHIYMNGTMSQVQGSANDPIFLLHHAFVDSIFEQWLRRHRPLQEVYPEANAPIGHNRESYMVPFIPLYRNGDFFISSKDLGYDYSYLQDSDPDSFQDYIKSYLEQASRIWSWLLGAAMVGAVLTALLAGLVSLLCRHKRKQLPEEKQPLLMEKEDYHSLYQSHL
Procedure: Study of the inhibition of tyrosinase by the hydroxytyrosol dihydrosinapate of the invention of formula (IIa), in comparison with the prior-art ferulic acid derivative, by quantitative analysis of the human tyrosinase activity of melanocytes cultured as a monolayer following application of the compound under test. Normal human melanocytes (obtained from abdominal plasty) are seeded in a 24-well plate at 80000 cells per well. They are cultured until confluence, and the compounds under test are applied in the culture media for 24 hours. After 24 hours, the media are removed and the melanocytes are detached by mechanical action. Extraction is carried out by thermal shock and then the supernatants are recovered and incubated with MBTH (methyl benzothiazolinone-hydrazone) (Sigma) and L-Dopa (Sigma). The optical density (OD) at 490 nm (OD490) is measured after 30 minutes of incubation, and the inhibition of tyrosinase is calculated according to the following formula: % inhibition=100−[100×(OD490 sample/level of proteins in sample)/(OD490 negative control/level of proteins in negative control)] The OD490 is therefore related to the level of protein, which is the measurement in each culture well. […] The results are presented as % inhibition of activity of tyrosinase, in Table 2.

[2] = DPPH radical scavenger test (acellular); settings: 30 minutes
Text: Study of the radical scavenger activity of the hydroxytyrosol dihydrosinapate of the invention of formula (IIa) and of the prior-art ferulic acid derivative in an acellular in vitro model, using DPPH.
1,1-Diphenyl-2-picrylhydrazyl, owing to its paramagnetic structure, is able to accept an electron or a hydrogen radical in order to become a stable diamagnetic molecule.
The addition of a compound which provides electrons gives rise to decoloring of the 1,1-diphenyl-2-picrylhydrazyl in a manner proportional to the number of electrons accepted by the radical, and this decoloration can be monitored by measuring the absorbance at 530 nm (OD530).
[…] At the end of the incubation, the radical scavenger activity of the compound under test is evaluated by measuring the absorbance of the solution at 530 nm.
The results are presented as % inhibition of the DPPH radical, in Table 3a).
The radical scavenger activity of the test product is calculated as a percentage, according to the following formula:
100−((OD530 in the presence of the compound under test/OD530 in the absence of compound)×100)

In the case of `COc1cc(CCC(=O)OCCc2ccc(O)c(O)c2)cc(OC)c1O` [Hydroxytyrosol dihydrosinapate (IIa), hydroxytyrosol dihydrosinapate], the “Percentage cell viability, Mean” value (keratinocytes; 1 μM) was 105.8%, the “Percentage cell viability, Mean” value (keratinocytes; 10 μM) was 115.2% and the “Percentage cell viability, Mean” value (keratinocytes; 100 μM) was 75.7%. The “cytotoxicity (in words)” value (keratinocytes; 10^−6, 10^−5 and 10^−4 M, tolerated threshold 75% viability) was “not cytotoxic”, the “% release of PGE2 after irradiation” value [1] was 22% and the “inhibition of the activity of human tyrosinase (in words)” value (human tyrosinase; human tyrosinase in the melanocytes) was “does not inhibit the activity of the human tyrosinase”. It also gave an inhibition at 1 µM (human tyrosinase; normal human melanocytes, 1 μM, 24 hours, read-out: % inhibition of activity of tyrosinase +/− standard deviation) of -5.85%, an inhibition at 10 µM (human tyrosinase; normal human melanocytes, 10 μM, 24 hours, read-out: % inhibition of activity of tyrosinase +/− standard deviation) of -4.53% and an inhibition at 100 µM (human tyrosinase; normal human melanocytes, 100 μM, 24 hours, read-out: % inhibition of activity of tyrosinase +/− standard deviation) of -36.6%. For the same compound, the “% inhibition of the DPPH radical” value ([2]; 1 μM) was 10.7 +/− 0.59%, the “% inhibition of the DPPH radical” value ([2]; 5 μM) was 59.68 +/− 0.89% and the “% inhibition of the DPPH radical” value ([2]; 10 μM) was 82.01 +/− 1.05%. For the same compound, the “% inhibition of the DPPH radical” value ([2]; 30 μM) was 86.68 +/− 0.44%, the “% inhibition of the DPPH radical” value ([2]; 50 μM) was 88.78 +/− 0.49% and the “% inhibition of the DPPH radical” value ([2]; 100 μM) was 88.28 +/− 0.56%. For the same compound, the “% inhibition of the DPPH radical” value ([2]; 1000 μM) was 89.14 +/− 0.40%.
